Measured values taken from BigSolDB 2.1.

CC1Cc2ccccc2N1NC(=O)c1ccc(Cl)c(S(N)(=O)=O)c1 (stereo not given)
solubility (mole fraction)
Settings	in 2-butanone	in acetone	in acetonitrile	in cyclohexane	in ethanol	in ethyl acetate	in isopropanol	in methanol	in n-propanol	in toluene
278.15 K	0.0155	0.0204	0.00184	1.28e-06	0.00383	0.000455	0.0012	0.00524	0.00285	4.36e-06
283.15 K	0.0175	0.0228	0.00278	2.34e-06	0.00514	0.000769	0.00187	0.00676	0.00398	6.4e-06
288.15 K	0.0198	0.0257	0.00391	3.75e-06	0.00709	0.00115	0.00279	0.00877	0.00531	1.08e-05
293.15 K	0.0225	0.0288	0.00536	5.88e-06	0.00913	0.00165	0.00386	0.0115	0.00685	1.68e-05
298.15 K	0.0255	0.0322	0.00714	9.3e-06	0.0116	0.00235	0.00535	0.0147	0.00884	2.54e-05
303.15 K	0.0291	0.036	0.00953	1.45e-05	0.0148	0.00336	0.00732	0.0187	0.0114	3.62e-05
308.15 K	0.0329	0.0402	0.0124	2.23e-05	0.0186	0.00464	0.00979	0.023	0.0143	5.21e-05
313.15 K	0.0371	0.0445	0.0158	3.36e-05	0.0227	0.00638	0.013	0.0276	0.0177	7.52e-05
318.15 K	0.0417	0.0495	0.0199	5.02e-05	0.0275	0.00855	0.0168	0.033	0.0219	0.000106
